{
  "source": "patent US12016974B2",
  "about": "“Nitric oxide releasing surfaces for decreased fouling, thrombosis, and infection of medical devices” (priority 2016, dated 2024)",
  "key": {"[1]": {"assay": "Solubility of SNAP in silicone oil", "type": "physicochemical", "conditions": "oil or lipid, thermodynamic from solid", "description": "Leaching of SNAP from the silicone tubing was repeated during the oil swelling process as well, to ensure large amounts of SNAP were not lost during the 3-day swelling period. Sections of SNAP impregnated tubing were massed and placed in 4 mL of silicone oil. The absorbance spectra of silicone oil were taken to ensure no interference would be seen between the SNAP maxima and the oil. […] Therefore, the same calibration curve of SNAP in PBS-EDTA was used for determining SNAP concentration in the silicone oil. Solubility of SNAP in silicone oil was determined by adding 10 mg/mL and put on a vortex mixer for 2 min. The suspension was then centrifuged (10 min, 3000 rpm), and a 1 mL sample of the silicone oil was taken for UV vis spectroscopy."}, "[2]": {"conditions": "after 6 months at room temperature; cited from earlier work"}},
  "data": [
    {"smiles": "CC(=O)N[C@@H](C(=O)O)C(C)(C)SN=O", "note": "(racemic) [SNAP, S-nitroso-N-acetylpenicillamine]", "values": [
      {"measurement": "solubility at 2 min", "setting": "[1]", "result": 0.4, "unit": "µg/mL"},
      {"measurement": "SNAP activity retained within a polymer matrix", "setting": "[2]", "result": 87, "unit": "%"}
    ]}
  ]
}
